Data as given in patent US10584351B2, “Vectors conditionally expressing therapeutic proteins, host cells comprising the vectors, and uses thereof” (Intrexon Corporation, priority 2010, dated 2020).

Key:
[1] = tested on: B16F0 murine melanoma cancer cells; assay: Ad-RTS-IL-12 dose response study in the mouse B16F0 melanoma model; format: in vivo; conditions: ligand by itself (chow)
From the text: The anti-tumor effect of Ad-RTS-IL-12 has been evaluated in a series of murine tumor models of melanoma, colorectal, pancreatic, breast, lung and renal cancers. An exemplary dose response experiment is shown below. Immuno-competent female C57bl/6 mice (6-8 week old) were inoculated subcutaneously with B16F0 murine melanoma cancer cells. Eleven days after tumor cell inoculation, when macroscopic tumor nodules were evident (tumor volumes averaged approx. 40 mm^3), the mice were separated into groups of 5 animals each. There were 9 groups including: control saline treated; activator ligand treated; Ad-RTS-mIL12 ([…]) alone and 6 groups were treated with different doses of vector Ad-RTS-mIL-12 (1e7, 1e8, 1e9, 5e9, 1e10, 5e10 viral particles) plus activator ligand. Mice in the +ligand groups were provided 100 mg/kg activator ligand in 2018 Teklad Global 18% Protein Rodent Diet (Harlan Laboratories) chow (1000 mg ligand/kg chow) one day before the vector administration. The mice in control groups received 2018 Teklad Global 18% Protein Rodent Diet chow. A single administration of Ad-RTS-mIL12 in 100 ul PBS was injected into tumor on day 12. Tumor volume and body weights were measured every 2-3 days using calipers and a weight scale, and the animals were followed until control tumors reached 2000 mm^3. Data were uploaded into Study Log animal study software.

[2] = tested on: murine Lewis lung carcinoma cells (LLC); assay: Ad-RTS-mIL12 in the Lewis lung carcinoma (LLC) model; format: in vivo, mouse; conditions: activator (L) chow alone
From the text: Female, 6- to 8-week-old C57b/6 immunocompetent mice were inoculated subcutaneously (s.c.) with murine Lewis lung carcinoma cells (LLC). Five days post cell inoculation, the mice were randomized and assigned to treatment and control groups (n=5) for a total of four groups—no treatment (control), activator (RG-115932) alone, AdRTS-mIL12 alone and Ad-RTS-mIL12 plus activator. The cohorts receiving activator (L) were fed (2018 Teklad Global 18% Protein Rodent Diet (Harlan Laboratories) chow blended with activator (1000 mg/kg chow) ad libitum. Cohorts receiving treatment with Ad-RTS-mIL12 alone or no treatment continued to receive a regular diet. Treatment was initiated when the tumor reached 28±6 mm^3. The Ad-RTS-mIL12 (1e10 vp/100 ul in PBS) was given to mice through intratumoral (i.t.) injection on Day 6, 9 and 13 post tumor cell inoculation. Activator chow (L) was started to given to mice 24 hr prior to vector administration. Tumor size and body weight of each mouse were monitored three times a week using calipers and a weight scale until the end of experiment. The experiment was terminated when the mice tumor size exceeded >1200 mm^3. Data were uploaded into Study Log animal study software.

[3] = tested on: murine melanoma cancer cells (B16F0); assay: Ad-RTS-mIL12 with different activator doses in the melanoma (B16F0) model; format: in vivo, mouse; conditions: activator chow alone
Method: Female, 6- to 8-week-old C57b/6 immunocompetent mice were inoculated subcutaneously (s.c.) with murine melanoma cancer cells (B16F0). Ten days post cell inoculation, the mice were randomly assigned to treatment and control groups (n=5) for a total of nine groups: no treatment (control), activator (L) (RG-115932) alone, and AdRTS-mlL12 alone, and Ad-RTS-mIL12 with different activator dose (50, 100, 250, 500 and 1000 mg/kg) of ligand. The cohorts receiving activator (L) were fed rodent 2018 Teklad Global 18% Protein Rodent Diet chow blended with activator (1000 mg/kg chow) ad libitum. Cohorts receiving treatment with Ad-RTS-mIL12 alone or no treatment continued to receive a regular 2018 Teklad Global 18% Protein Rodent Diet chow diet. Treatment was initiated when the tumor reached […]. A single dose of Ad-RTSmIL12 (1e10 vp/100 ul in PBS) was given to mice through intratumoral (i.t.) injection on Day 13 post tumor cell inoculation. The activator (L) chow was given to mice 24 hr prior to vector injection. Tumor size and body weight of each mouse were monitored three times a week using calipers and a weight scale until the end of experiment. The experiment was terminated when the tumor size exceeded >2000 mm^3. Data were uploaded into Study Log animal study software.

[4] = tested on: murine colon cancer cells (CT26Luc); assay: Ad-RTS-mIL12 in the colon cancer (CT26Luc) model; format: in vivo, mouse; conditions: activator chow alone
From the text: Female, 6- to 8-week-old Balb/C immunocompetent mice were inoculated subcutaneously (s.c.) with luciferase expressing stable murine colon cancer cells (CT26Luc). Ten days post cell inoculation, the mice were randomly assigned to treatment and control groups (n=5) for a total of three groups—no treatment (control), activator (L) (RG-115932) alone, and Ad-RTS-mIL12 plus activator. The cohorts receiving activator (L) were fed 2018 Teklad Global 18% Protein Rodent Diet chow (Harlan Laboratories) blended with activator (1000 mg/kg chow) ad libitum. Cohorts receiving no treatment continued to receive 2018 Teklad Global 18% Protein Rodent Diet chow. Treatment was initiated when the tumor reached 40+17 mm^3. The Ad-RTS-mIL12 (1e10 vp/100 ul in PBS) was given to mice through intratumoral (i.t.) injection on Day 11 and 18 post tumor cell inoculation. The activator (L) chow was given to mice 24 hr prior to vector injection. Tumor size and body weight of each mouse were monitored three times a week using calipers and a weight scale until the end of experiment. The experiment was terminated when the mouse tumor size exceeds >2000 mm^3. Data were uploaded into Study Log animal study software.

[5] = tested on: PAN02 pancreatic cancer cells; assay: Ad-RTS-mIL12 in the pancreatic cancer (PAN02) model; format: in vivo, mouse; conditions: activator alone
Method: Female, 6- to 8-week-old C57b/6 immuno competent mice were inoculated subcutaneously (s.c.) with syngenic PAN02 pancreatic cancer cells (ATCC). Six days post cell inoculation, the mice were randomized into groups of five animals each in four groups—no treatment, activator (RG-115932) alone, Ad-RTS-mIL12 alone and Ad-RTS-mIL12 plus activator. The cohorts receiving activator ligand were fed 2018 Teklad Global 18% Protein Rodent Diet chow (Harlan Laboratories) blended with activator (1000 mg/kg chow) ad libitum. Cohorts receiving treatment with Ad-RTS-mIL12 alone or no treatment continued to receive 2018 Teklad Global 18% Protein Rodent Diet chow. Mice received treatment with a single intratumoral (i.t.) injection of Ad-RTS-mIL12 at dose level of 1e10 vp/100 ul in PBS, on Day 7 and Day 14 post tumor cell implantation. The tumor size averaged […] at the time of vector treatment initiation.
Tumor size and body weight of each mouse were monitored three times a week until the end of experiment. The experiment was terminated when the mice tumor size exceeded 600 mm^3. Since pancreatic tumors grow very slowly, we defined […]. The tumor growth in mice receiving no treatment was normal.

[6] = tested on: breast cancer (4T1) cells; assay: Ad-RTS-mIL12 in the breast cancer (4T1) model; format: in vivo, mouse; conditions: activator ligand alone, Day 26
Method: Six- to eight-week-old female BalbC mice were purchased from Charles River Laboratories or Harlan (USA). Animal care and experimental procedure were performed according to the Intrexon's Institutional Animal Care and Use Committee guideline.
Murine breast carcinoma (4T1) cell lines were purchased from ATCC (Manassas, Va.). The 4T1 cells were grown in Roswell Park Memorial Institute medium (RPMI) 1640 (ATCC, Manassas, Va. The medium was supplemented with heat-inactivated fetal calf serum (FCS) 10% v/v, 2-mM L-glutamine (Atlanta Biologicals, Inc, Lawrenceville, Ga.), 100 IU/ml penicillin G, and 100 μg/ml streptomycin. The cells were grown at 37° C. in 5% C02. All cell lines were routinely tested and found to be free of mycoplasma.
Female, 6- to 8-week-old BALB/c immune-competent mice were inoculated subcutaneously (s.c.) with syngenic breast cancer (4T1) cells, 1e5 cells/50 ul. Eight days post cell inoculation, the mice were randomized into groups of five animals each in four groups—no treatment, activator alone, Ad-RTS-mIL12 alone and Ad-RTS-mIL12 plus activator. The cohorts receiving activator ligand were fed rodent chow blended with activator (1000 mg/kg) ad libitum. […] Tumor size and body weight of each mouse were monitored three times a week until the end of experiment. […]

CCC[C@@H](N(NC(=O)c1cccc(OC)c1CC)C(=O)c1cc(C)cc(C)c1)C(C)(C)C [RG-115932, (R)-3,5-Dimethyl-benzoic acid N-(1-tert-butyl-butyl)-N′-(2-ethyl-3-methoxy-benzoyl)-hydrazide]
anti-tumor effect [1]: no effect | tumor growth kinetics versus control [2]: approximately similar tumor growth kinetics | anti-tumor activity [3]: did not have anti-tumor activity | tumor growth [4]: did not inhibit tumor growth | tumor growth delay [5]: minor tumor growth delay | tumor growth inhibition relative to control [6]: 22% | tumor growth inhibition relative to control ([6]; listed as activator ligand (L)): 35%
